Species: Rattus norvegicus
Experiment: DrugMatrix - Regimen: Daily Repeat
Type: toxicity, organism-based, Sprague-Dawley
Design: regimen Daily Repeat, gender Male, age 6-8 weeks
Conditions: in vivo, sc, route subcutaneous, […]; for ABSOLUTE BASOPHIL / ABSOLUTE EOSINOPHIL / ABSOLUTE LYMPHOCYTE / ABSOLUTE MONOCYTE / ABSOLUTE SEGMENTED NEUTROPHIL / BASOPHIL / EOSINOPHIL / ERYTHROCYTE COUNT / HEMATOCRIT / HEMOGLOBIN / LEUKOCYTE COUNT / LYMPHOCYTE / MEAN CORPUSCULAR HEMOGLOBIN / MEAN CORPUSCULAR HEMOGLOBIN CONCENTRATION / MEAN CORPUSCULAR VOLUME / MONOCYTE / NEUTROPHIL / NUCLEATED RED BLOOD CELLS / PLATELET COUNT: tissue Blood; for ALANINE AMINOTRANSFERASE / ALBUMIN / ALKALINE PHOSPHATASE / ASPARTATE AMINOTRANSFERASE / BLOOD UREA NITROGEN / CARBON DIOXIDE / CHLORIDE / CHOLESTEROL / CREATINE PHOSPHOKINASE / CREATININE / GLUCOSE / LACTATE DEHYDROGENASE / LIPASE / PHOSPHORUS / POTASSIUM / SODIUM / TOTAL BILIRUBIN / TOTAL PROTEIN / URIC ACID: tissue Plasma
[1] = 14 mg/kg, 120 h, dose level Low, time 5 day
[2] = 140 mg/kg, 72 h, dose level High, time 3 day
[3] = 140 mg/kg, 120 h, dose level High, time 5 day

Compound: CCN(CC)CCOCCC1=CCC2CC1C2(C)C (centres undefined) [MYRTECAINE]
- ABSOLUTE BASOPHIL [1]: 0 CELLS/uL
- ABSOLUTE EOSINOPHIL [1]: 435.67 CELLS/uL
- ABSOLUTE LYMPHOCYTE [1]: 16182.67 CELLS/uL
- ABSOLUTE MONOCYTE [1]: 0 CELLS/uL
- ABSOLUTE SEGMENTED NEUTROPHIL [1]: 2215 CELLS/uL
- BASOPHIL [1]: 0%
- EOSINOPHIL [1]: 2.33%
- ERYTHROCYTE COUNT [1]: 6.14 x10E6/uL
- HEMATOCRIT [1]: 39.17%
- HEMOGLOBIN [1]: 15.53 G/DL
- LEUKOCYTE COUNT [1]: 18.83 x10E3/uL
- LYMPHOCYTE [1]: 86%
- MEAN CORPUSCULAR HEMOGLOBIN [1]: 25.33 pg
- MEAN CORPUSCULAR HEMOGLOBIN CONCENTRATION [1]: 39.7 G/DL
- MEAN CORPUSCULAR VOLUME [1]: 63.8 fL
- MONOCYTE [1]: 0%
- NEUTROPHIL [1]: 11.67%
- NUCLEATED RED BLOOD CELLS [1]: 0 /100WBC
- PLATELET COUNT [1]: 1530.33 x10E3/uL
- ALANINE AMINOTRANSFERASE [1]: 58 u/L
- ALBUMIN [1]: 4.53 G/DL
- ALKALINE PHOSPHATASE [1]: 470.67 u/L
- ASPARTATE AMINOTRANSFERASE [1]: 83.67 u/L
- BLOOD UREA NITROGEN [1]: 17.67 mg/dL
- CARBON DIOXIDE [1]: 31.67 mmol/L
- CHLORIDE [1]: 104 MEQ/L
- CHOLESTEROL [1]: 76.67 mg/dL
- CREATINE PHOSPHOKINASE [1]: 162.33 u/L
- CREATININE [1]: 0.26 mg/dL
- GLUCOSE [1]: 157.67 mg/dL
- LACTATE DEHYDROGENASE [1]: 142 u/L
- LIPASE [1]: 9.67 u/L
- PHOSPHORUS [1]: 14.37 mg/dL
- POTASSIUM [1]: 7.28 MEQ/L
- SODIUM [1]: 151.27 MEQ/L
- TOTAL BILIRUBIN [1]: 0.3 mg/dL
- TOTAL PROTEIN [1]: 6.67 G/DL
- URIC ACID [1]: 2.23 mg/dL
- ABSOLUTE BASOPHIL [2]: 0 CELLS/uL
- ABSOLUTE EOSINOPHIL [2]: 42 CELLS/uL
- ABSOLUTE LYMPHOCYTE [2]: 11279.33 CELLS/uL
- ABSOLUTE MONOCYTE [2]: 191.33 CELLS/uL
- ABSOLUTE SEGMENTED NEUTROPHIL [2]: 620.67 CELLS/uL
- BASOPHIL [2]: 0%
- EOSINOPHIL [2]: 0.33%
- ERYTHROCYTE COUNT [2]: 5.34 x10E6/uL
- HEMATOCRIT [2]: 33.37%
- HEMOGLOBIN [2]: 13.6 G/DL
- LEUKOCYTE COUNT [2]: 12.13 x10E3/uL
- LYMPHOCYTE [2]: 93%
- MEAN CORPUSCULAR HEMOGLOBIN [2]: 25.53 pg
- MEAN CORPUSCULAR HEMOGLOBIN CONCENTRATION [2]: 40.77 G/DL
- MEAN CORPUSCULAR VOLUME [2]: 62.57 fL
- MONOCYTE [2]: 1.67%
- NEUTROPHIL [2]: 5%
- NUCLEATED RED BLOOD CELLS [2]: 0 /100WBC
- PLATELET COUNT [2]: 1370.67 x10E3/uL
- ALANINE AMINOTRANSFERASE [2]: 61.67 u/L
- ALBUMIN [2]: 3.67 G/DL
- ALKALINE PHOSPHATASE [2]: 346 u/L
- ASPARTATE AMINOTRANSFERASE [2]: 92 u/L
- BLOOD UREA NITROGEN [2]: 13.33 mg/dL
- CARBON DIOXIDE [2]: 30.33 mmol/L
- CHLORIDE [2]: 100.33 MEQ/L
- CHOLESTEROL [2]: 67 mg/dL
- CREATINE PHOSPHOKINASE [2]: 447 u/L
- CREATININE [2]: 0.17 mg/dL
- GLUCOSE [2]: 155.33 mg/dL
- LACTATE DEHYDROGENASE [2]: 247.33 u/L
- LIPASE [2]: 8 u/L
- PHOSPHORUS [2]: 13.73 mg/dL
- POTASSIUM [2]: 7.09 MEQ/L
- SODIUM [2]: 144.03 MEQ/L
- TOTAL BILIRUBIN [2]: 0.2 mg/dL
- TOTAL PROTEIN [2]: 5.6 G/DL
- URIC ACID [2]: 2.03 mg/dL
- ABSOLUTE BASOPHIL [3]: 0 CELLS/uL
- ABSOLUTE EOSINOPHIL [3]: 174.67 CELLS/uL
- ABSOLUTE LYMPHOCYTE [3]: 14614 CELLS/uL
- ABSOLUTE MONOCYTE [3]: 386 CELLS/uL
- ABSOLUTE SEGMENTED NEUTROPHIL [3]: 2992 CELLS/uL
- BASOPHIL [3]: 0%
- EOSINOPHIL [3]: 1%
- ERYTHROCYTE COUNT [3]: 6.17 x10E6/uL
- HEMATOCRIT [3]: 37.83%
- HEMOGLOBIN [3]: 14.87 G/DL
- LEUKOCYTE COUNT [3]: 18.17 x10E3/uL
- LYMPHOCYTE [3]: 81.33%
- MEAN CORPUSCULAR HEMOGLOBIN [3]: 24.07 pg
- MEAN CORPUSCULAR HEMOGLOBIN CONCENTRATION [3]: 39.33 G/DL
- MEAN CORPUSCULAR VOLUME [3]: 61.3 fL
- MONOCYTE [3]: 2.33%
- NEUTROPHIL [3]: 15.33%
- NUCLEATED RED BLOOD CELLS [3]: 0 /100WBC
- PLATELET COUNT [3]: 1631 x10E3/uL
- ALANINE AMINOTRANSFERASE [3]: 84.67 u/L
- ALBUMIN [3]: 3.97 G/DL
- ALKALINE PHOSPHATASE [3]: 328 u/L
- ASPARTATE AMINOTRANSFERASE [3]: 111.67 u/L
- BLOOD UREA NITROGEN [3]: 16 mg/dL
- CARBON DIOXIDE [3]: 26.33 mmol/L
- CHLORIDE [3]: 104 MEQ/L
- CHOLESTEROL [3]: 74.67 mg/dL
- CREATINE PHOSPHOKINASE [3]: 356 u/L
- CREATININE [3]: 0.2 mg/dL
- GLUCOSE [3]: 164.67 mg/dL
- LACTATE DEHYDROGENASE [3]: 370 u/L
- LIPASE [3]: 12 u/L
- PHOSPHORUS [3]: 13.97 mg/dL
- POTASSIUM [3]: 6.94 MEQ/L
- SODIUM [3]: 146.77 MEQ/L
- TOTAL BILIRUBIN [3]: 0.17 mg/dL
- TOTAL PROTEIN [3]: 5.97 G/DL
- URIC ACID [3]: 2.6 mg/dL

— ChEMBL document CHEMBL3885881, “DrugMatrix”
